Measurements as given in ChEMBL document CHEMBL1177848, “Synthesis of novel 6,6a,7,8-tetrahydro-5H-naphtho[1,2-e]pyrimido[4,5-b][1,4]diazepines under microwave irradiation as potential anti-tumor agents” (2010).
Calls of active or inactive are those of the source.

Legend:
Type in all cases: functional, cell-based
[1] = tested on: MDA-MB-435; test: Growth inhibition of human MDA-MB-435 cells at 1 uM after 48 hrs by sulforhodamine B assay
[2] = tested on: MDA-MB-468; test: Growth inhibition of human MDA-MB-468 cells at 1 uM after 48 hrs by sulforhodamine B assay
[3] = tested on: TK-10; test: Growth inhibition of human TK10 cells at 1 uM after 48 hrs by sulforhodamine B assay
[4] = tested on: SW-620; test: Growth inhibition of human SW620 cells at 1 uM after 48 hrs by sulforhodamine B assay
[5] = tested on: HL-60; test: Growth inhibition of human HL-60(TB) cells at 1 uM after 48 hrs by sulforhodamine B assay
[6] = tested on: IGROV-1; test: Growth inhibition of human IGROV1 cells at 1 uM after 48 hrs by sulforhodamine B assay
[7] = tested on: MDA-MB-231; test: Growth inhibition of human MDA-MB-231 cells at 1 uM after 48 hrs by sulforhodamine B assay
[8] = tested on: UO-31; test: Growth inhibition of human UO31 cells at 1 uM after 48 hrs by sulforhodamine B assay
[9] = tested on: CAKI-1; test: Growth inhibition of human Caki1 cells at 1 uM after 48 hrs by sulforhodamine B assay
[10] = tested on: SNB-75; test: Growth inhibition of human SNB75 cells at 1 uM after 48 hrs by sulforhodamine B assay
[11] = tested on: M14; test: Growth inhibition of human M14 cells at 1 uM after 48 hrs by sulforhodamine B assay
[12] = tested on: HCC 2998; test: Growth inhibition of human HCC2998 cells at 1 uM after 48 hrs by sulforhodamine B assay
[13] = tested on: BT-549; test: Growth inhibition of human BT549 cells at 1 uM after 48 hrs by sulforhodamine B assay
[14] = tested on: A549; test: Growth inhibition of human A549 cells at 1 uM after 48 hrs by sulforhodamine B assay
[15] = tested on: EKVX; test: Growth inhibition of human EKVX cells at 1 uM after 48 hrs by sulforhodamine B assay
[16] = tested on: UACC-257; test: Growth inhibition of human UACC257 cells at 1 uM after 48 hrs by sulforhodamine B assay
[17] = tested on: SF-268; test: Growth inhibition of human SF268 cells at 1 uM after 48 hrs by sulforhodamine B assay
[18] = tested on: MCF7; test: Growth inhibition of human MCF7 cells at 1 uM after 48 hrs by sulforhodamine B assay
[19] = tested on: OVCAR-3; test: Growth inhibition of human OVCAR-3 cells at 1 uM after 48 hrs by sulforhodamine B assay
[20] = tested on: ACHN; test: Growth inhibition of human ACHN cells at 1 uM after 48 hrs by sulforhodamine B assay
[21] = tested on: NCI-H460; test: Growth inhibition of human NCI-H460 cells at 1 uM after 48 hrs by sulforhodamine B assay
[22] = tested on: SK-MEL-28; test: Growth inhibition of human SK-MEL-28 cells at 1 uM after 48 hrs by sulforhodamine B assay
[23] = tested on: SK-MEL-2; test: Growth inhibition of human SK-MEL-2 cells at 1 uM after 48 hrs by sulforhodamine B assay
[24] = tested on: SF-539; test: Growth inhibition of human SF539 cells at 1 uM after 48 hrs by sulforhodamine B assay
[25] = tested on: T47D; test: Growth inhibition of human T47D cells at 1 uM after 48 hrs by sulforhodamine B assay
[26] = tested on: LOX IMVI; test: Growth inhibition of human LOXIMVI cells at 1 uM after 48 hrs by sulforhodamine B assay
[27] = tested on: K562; test: Growth inhibition of human K562 cells at 1 uM after 48 hrs by sulforhodamine B assay
[28] = tested on: RPMI-8226; test: Growth inhibition of human RPMI8226 cells at 1 uM after 48 hrs by sulforhodamine B assay
[29] = tested on: OVCAR-4; test: Growth inhibition of human OVCAR4 cells at 1 uM after 48 hrs by sulforhodamine B assay
[30] = tested on: KM12; test: Growth inhibition of human KM12 cells at 1 uM after 48 hrs by sulforhodamine B assay
[31] = tested on: SR; test: Growth inhibition of human SR cells at 1 uM after 48 hrs by sulforhodamine B assay
[32] = tested on: HT-29; test: Growth inhibition of human HT-29 cells at 1 uM after 48 hrs by sulforhodamine B assay
[33] = tested on: SN12C; test: Growth inhibition of human SN12C cells at 1 uM after 48 hrs by sulforhodamine B assay
[34] = tested on: NCI-H522; test: Growth inhibition of human NCI-H522 cells at 1 uM after 48 hrs by sulforhodamine B assay
[35] = tested on: DU-145; test: Growth inhibition of human DU145 cells at 1 uM after 48 hrs by sulforhodamine B assay
[36] = tested on: A498; test: Growth inhibition of human A498 cells at 1 uM after 48 hrs by sulforhodamine B assay
[37] = tested on: NCI/ADR-RES; test: Growth inhibition of human NCI/ADR-RES cells at 1 uM after 48 hrs by sulforhodamine B assay
[38] = tested on: SF-295; test: Growth inhibition of human SF295 cells at 1 uM after 48 hrs by sulforhodamine B assay
[39] = tested on: HCT-15; test: Growth inhibition of human HCT15 cells at 1 uM after 48 hrs by sulforhodamine B assay
[40] = tested on: NCI-H23; test: Growth inhibition of human NCI-H23 cells at 1 uM after 48 hrs by sulforhodamine B assay
[41] = tested on: HCT-116; test: Growth inhibition of human HCT116 cells at 1 uM after 48 hrs by sulforhodamine B assay
[42] = tested on: OVCAR-8; test: Growth inhibition of human OVCAR8 cells at 1 uM after 48 hrs by sulforhodamine B assay
[43] = tested on: PC-3; test: Growth inhibition of human PC3 cells at 1 uM after 48 hrs by sulforhodamine B assay
[44] = tested on: U-251; test: Growth inhibition of human U251 cells at 1 uM after 48 hrs by sulforhodamine B assay
[45] = tested on: SF530; test: Growth inhibition of human SF530 cells at 1 uM after 48 hrs by sulforhodamine B assay
[46] = tested on: NCI-H322M; test: Growth inhibition of human […] cells at 1 uM after 48 hrs by sulforhodamine B assay
[47] = tested on: NCI-H226; test: Growth inhibition of human NCI-H226 cells at 1 uM after 48 hrs by sulforhodamine B assay
[48] = tested on: MOLT-4; test: Growth inhibition of human MOLT4 cells at 1 uM after 48 hrs by sulforhodamine B assay
[49] = tested on: SK-MEL-5; test: Growth inhibition of human SK-MEL-5 cells at 1 uM after 48 hrs by sulforhodamine B assay
[50] = tested on: COLO 205; test: Growth inhibition of human COLO205 cells at 1 uM after 48 hrs by sulforhodamine B assay
[51] = tested on: UACC-62; test: Growth inhibition of human UACC62 cells at 1 uM after 48 hrs by sulforhodamine B assay
[52] = tested on: Malme-3M; test: Growth inhibition of human MALME-3M cells at 1 uM after 48 hrs by sulforhodamine B assay
[53] = tested on: Hs-578T; test: Growth inhibition of human Hs 578T cells at 1 uM after 48 hrs by sulforhodamine B assay
[54] = tested on: HOP-92; test: Growth inhibition of human HOP92 cells at 1 uM after 48 hrs by sulforhodamine B assay
[55] = tested on: RXF 393; test: Growth inhibition of human RXF393 cells at 1 uM after 48 hrs by sulforhodamine B assay
[56] = tested on: CCRF-CEM; test: Growth inhibition of human CCRF-CEM cells at 1 uM after 48 hrs by sulforhodamine B assay
[57] = tested on: 786-0; test: Growth inhibition of human 786-0 cells at 1 uM after 48 hrs by sulforhodamine B assay
[58] = tested on: HOP-62; test: Growth inhibition of human HOP62 cells at 1 uM after 48 hrs by sulforhodamine B assay

Measured: growth inhibition (GI)

Nc1ncnc2c1N=C1c3ccccc3CCC1C(c1ccc(F)cc1)N2 (stereo not drawn)
active: all assays above
